Publication PMC5874820 (Pharmaceutics, 2018)
Like-named read-outs stand apart in the source and are kept apart here.

Key:
[1] = tested on: PANC-1 xenograft tumor; assay: In vivo PANC-1 tumor growth xenograft model; design: species or system female athymic nude mice; settings: for percentage of inhibition of tumor growth: Panc-1 xenograft in nude mice
Method: The PANC-1 cells derived from human pancreatic carcinoma of ductal cell origin were obtained from National Center for Cell Science, Pune, India. The cells were cultured in Dulbecco's modified medium (DMEM) supplemented with 10% v/v fetal bovine serum (FBS), 1% penicillin, and 1% streptomycin. Cultures (Figure S1, Supplementary Materials) were maintained at 37 °C in a humidified atmosphere with 5% CO2. Female athymic nude mice were obtained from the National Centre for Laboratory Animal Sciences (NCLAS), National Institute of Nutrition (ICMR), Hyderabad, India and were selected after careful initial screening for any external signs of disease or injuries. They were housed in individual cages in the conventional animal facilities of NCLAS, a registered facility with Committee for the Purpose of Control and Supervision of Experimentation on Animals (CPCSEA) (154/1999), Government of India. The environmental conditions were kept at 21 ± 2 °C, with 10-15 air changes per hour and relative humidity of 50-55 percent with 12 h light/dark cycle water. Animals were quarantined for 4 days and all the animals had free access to sterile formulated feed pellets and filtered potable clean water. PANC-1 cells (1 × 10^6) using matrigel were injected subcutaneously into the flanks of mice (Figure S2, Supplementary Materials). […] Each mouse was administered orally (p.o.) every day with either control vehicle (CMC), CUR (50 mg/kg), ART (50 mg/kg), CUR-ART (50 and 100 mg/kg) and Doxorubicin (2 mg/kg) by intravenous (i.v.) route. […] At the same time, the body weight of each animal was measured. At the end of the experiment (4 weeks after cell inoculation), the animals were euthanized by CO2 and sacrificed. Tumors from each animal were removed and measured. Each value represents mean ± SD (Standard Deviation). The control and experimental animal groups were compared by paired t-test. **** p < 0.0001 was considered significant.

[2] = Supersaturation study in SGF and SIF (without enzyme), UV at 420 nm; assay type: physicochemical; settings: 100 µg/mL CUR, 30 °C
Method: Supersaturation of CUR and CUR-ART were measured in SGF and SIF (without enzyme) medium at 30 °C. The supersaturated solution (CUR 100 µg/mL dissolved in 5 mL of SGF/SIF fluid) was stirred at 800 rpm using a magnetic stirrer at 30 °C. After regular intervals of time 2, 4, 6, 12 and 24 h the solution concentration of curcumin was determined at 420 nm maxima on a Thermo Scientific Evolution 300 UV-Vis spectrometer (Thermo Scientific, Waltham, MA, USA).

[3] = design: method as in PMID 17999464, PMID 1529022; settings: cited from earlier work
[4] = cited from earlier work
[5] = design: method as in doi:10.1039/C4RA11935E; settings: curcumin (crystalline), oral dose of 200 mg/kg, male SD rats; cited from earlier work
[6] = Pharmacokinetic study, oral gavage, curcumin in plasma by HPLC; settings: oral administration, SD rats
Method: Sprague-Dawley rats (200 ± 50 g) were obtained from Sainath Agencies Limited (Hyderabad, India). Animals were acclimatized for 1 week prior to experimentation in a temperature-controlled, 12/12 h light/dark room, and were allowed standard laboratory food and water. The rats were fasted overnight (~18 h) with free access to water before the experiment.
All compounds (200 mg/kg) were suspended in 1% sodium carboxymethylcellulose (CMC) separately and administered by oral gavage. Blood (0.4 mL) was withdrawn from retro-orbital plexus into lithium heparin tube at the following times after drug administration: 30, 45, 60, 90, 120, 180, 240, 360, 480 and 720 min. […]
Curcumin Plasma concentrations of CUR were analyzed by HPLC (Shimadzu, Mumbai, India). The area under the curve (AUC) for serum concentration versus time plots was calculated by linear trapezoidal rate. […]
The HPLC analyses were performed using a Shimadzu Prominence model LC-20AD equipped with 20 mL injection loop, and a photodiode array detector and CUR detected at 420 nm. […]
The standard curve was calculated by a linear relationship between concentration and area with regression factor R = 0.999. The Area under the curve (AUC) for serum concentration vs. Time plots was calculated by the linear trapezoidal rule. […]

[7] = pure curcumin, reference not given

C[C@@H]1CC[C@H]2[C@@H](C)C(=O)O[C@@H]3O[C@@]4(C)CC[C@@H]1[C@]32OO4 [ART, Artemisinin]
percentage of inhibition of tumor growth ([1]; 50 mg/kg p.o. daily): 29.22%

Curcumin
precipitation / residence time of solubilized CUR [2]: precipitated faster than CUR-ART | percentage of inhibition of tumor growth ([1]; 50 mg/kg p.o. daily): 41.23% | aqueous solubility [3]: 7.8 µg/mL | detection by HPLC at higher dosage levels ([4]; dosage >1 g/kg, ref recent reports): could not be detected | half-life ([4]; pure curcumin in crystalline form, reference not given): 45 to 60 min | half-life [4, 7]: < 60 min | time in which it decomposes [4, 7]: less than 1 h | plasma concentration by HPLC [5]: no plasma concentration for curcumin (crystalline) could be detected | detectable curcumin levels in the serum [6]: did not show any detectable levels

COc1cccc2c1C(=O)c1c(O)c3c(c(O)c1C2=O)C[C@@](O)(C(=O)CO)C[C@@H]3O[C@H]1C[C@H](N)[C@H](O)[C@H](C)O1 [doxorubicin]
percentage of inhibition of tumor growth ([1]; 2 mg/kg i.v. daily): 69.97% | effect on tumor size compared to other solids and controls ([1]; p < 0.0001, Panc-1 xenograft in nude mice): decreased tumor size significantly
